Several values for one entry are separate records, joined by “and”; a condition that tells them apart may be missing. Identical values can stand only once.
Experiments:
[1] = Equilibrium aqueous solubility from solid; type: physicochemical; details: H20; room temperature overnight
Procedure: Samples of the ocinaplon salts shown above were evaluated for equilibrium aqueous solubility from solid. Duplicate samples of ocinaplon were accurately weighed and diluted to 1 ml with water to 6.83 mg/ml and 6.43 mg/ml. Duplicate samples of Ocinaplon di HCl salt were accurately weighed and diluted to 1 ml with water to 5.5 mg/ml and 6.0 mg/ml. Ocinaplon di HBr salt was accurately weighed and diluted to 1 ml with water to 6.1 mg/ml and 5.8 mg/ml. Ocinaplon disulfate salt was accurately weighed and diluted to 1 ml with water to 7.5 mg/ml and 6.5 mg/ml. Any change in pH of the water following sample addition was recorded. After equilibration at room temperature overnight the solutions were filtered and solute concentration determined by fast gradient HPLC with UV/VIS/MS detection with reference to 5, 10, 50, 100 and 250 μM analytical standards. Prior to sample filtration, filters were primed with 600 μl of sample to resolve potential adsorption problems. Both sample replicates were collected through the primed filter. Duplicate determinations were made in all cases.

[2] = Pharmacokinetics of different salt forms of ocinaplon after a single oral dose; type: in vivo; details: dog, plasma, male beagle dogs, 0.5% MC; for AUC(0-inf) / AUC(0-t) / Cmax: male, beagle, po
Procedure: (§1) The test compounds were prepared in 0.5% methylcellulose. The target concentrations of the free base and HBr salt were 1.0 and 1.34 mg/mL (equivalent to 1 mg of the free base), respectively. The liquid suspensions were administered via oral gavage. Prior to removing the gavage tube, the tube was flushed with approximately 5 mL of water.
(§2) Blood (approximately 2 mL) was collected from a jugular vein via syringe and needle and transferred into tubes containing K2EDTA anticoagulant predose and at 0.5, 1, 2, 3, 4, 6, 8, 12, and 24 hours postdose. Blood was maintained on wet ice, in chilled Kryoracks, or at approximately 5° C. prior to centrifugation to obtain plasma. Centrifugation began within 1 hour of collection. Plasma was placed on dry ice prior to storage at approximately −70° C. Plasma samples, remaining test compounds, and remaining dose formulations were shipped on dry ice to the analysis site and stored at approximately −70° C. before and after analysis. Samples were analyzed using an LC/MS/MS method. Plasma concentration-time data for each dog and formulation were analyzed using a noncompartmental model assumption with WinNonlin, version 4.1 (Pharsight Corporation, Mountain View, Calif.). All calculations were based on the nominal times as actual sample collection times departed minimally from the schedule times.
The pharmacokinetic parameters of different pyrazolopyrimidine acid salts vary in an apparently salt and compound dependent fashion. This is illustrated by a comparison of the pharmacokinetic properties of different acid salts of the pyrazolopyrimidine, ocinaplon. This study was performed in a manner similar to the study described in Example 9 hereinabove. The concentrations of the HCl, HBr and disulfate salts of ocinaplon were 3.72 mg/mL, 4.61 mg/mL and 4.95 mg/mL, respectively. All concentrations were calculated to be 3.0 mg free base/mL; the dose volume was […]. […] […] These findings exemplify and underscore the differences in pharmacokinetic profiles among these three exemplary salts of ocinaplon.

[3] = Plasma pharmacokinetic comparison of zaleplon free base and HCl salt after single oral doses; type: in vivo; details: male beagle dogs; for AUC(0-inf) / AUC(0-t) / Cmax / Tmax: male, beagle, dog, plasma, po
[4] = Pharmacokinetics of indiplon after oral administration of free base or HBr co-crystal suspension; type: in vivo, male beagle dogs; details: male dogs; for AUC(0-t) / Cmax / Tmax: single oral dose 5 mg free base/kg, 0.5% methylcellulose suspension
Procedure: The purpose of this study was to determine the pharmacokinetics of indiplon following oral administration of the free base and the HBr co-crystal in a suspension to male beagle dogs.
The test compounds used in the study were the free base and […] of indiplon. The compounds were stored at approximately 2-8° C.
Five male purebred beagles were transferred to the study from a stock colony. Each animal was identified with an individually numbered ear tattoo. The animals were acclimated for 5 days. At the time of dose administration, animals were young adult/adult age. During acclimation and the test period, animals were individually housed in wire-mesh enclosures with coated rod-bottom floors. Animals were not comingled for at least 24 hours after each dose administration to allow monitoring of any test compound-related effects. Animals had access to non-certified Canine Diet #5L03 (PMI Feeds, Inc.) ad libitum, except as specified for dose administration.
as §1, §2

[5] = single oral dose 50 mg/kg, mean (CV %)
[6] = 30 mg/kg, apparently scaled from 50 mg/kg
[7] = 50 mg/kg, single oral dose 50 mg/kg, mean (CV %)
[8] = 2.5 mg HCl Salt/kg, single oral dose 2.5 mg HCl Salt/kg, Mean of 5 dogs
[9] = 2.5 mg HCl Salt/kg, single oral dose 2.5 mg HCl Salt/kg, dog CLT-2
[10] = 2.5 mg HCl Salt/kg, single oral dose 2.5 mg HCl Salt/kg, dog H0M004
[11] = 2.5 mg HCl Salt/kg, single oral dose 2.5 mg HCl Salt/kg, dog H1B108
[12] = 2.5 mg HCl Salt/kg, single oral dose 2.5 mg HCl Salt/kg, dog TDR2
[13] = 2.5 mg HCl Salt/kg, single oral dose 2.5 mg HCl Salt/kg, dog TKR-2
[14] = 5 mg/kg, single oral dose 5.0 mg Free Base/kg, Mean of 5 dogs
[15] = 5 mg/kg, single oral dose 5.0 mg Free Base/kg, dog CLT-2
[16] = 5 mg/kg, single oral dose 5.0 mg Free Base/kg, dog H0M004
[17] = 5 mg/kg, single oral dose 5.0 mg Free Base/kg, dog H1B108
[18] = 5 mg/kg, single oral dose 5.0 mg Free Base/kg, dog TDR2
[19] = 5 mg/kg, single oral dose 5.0 mg Free Base/kg, dog TKR-2
[20] = dog CTZBCG, listed as Free Base Suspension
[21] = dog CUPBEG, listed as Free Base Suspension
[22] = dog CUVBAT, listed as Free Base Suspension
[23] = Mean, N = 5, listed as HBr Salt Suspension
[24] = dog CUPBEG, listed as HBr Salt Suspension
[25] = dog CUVBAT, listed as HBr Salt Suspension
[26] = dog CVRCVX, listed as HBr Salt Suspension
[27] = dog CVSCCL, listed as HBr Salt Suspension

## O=C(c1ccccn1)c1cnn2c(-c3ccncc3)ccnc12 [Ocinaplon Free base, pyridin-2-yl(7-(pyridin-4-yl)pyrazolo[1,5-a]pyrimidin-3-yl)methanone, reference compound]
[1]
  Equilibrium Aqueous Solubility from Solid: 0.4 mM and 0.1 mg/ml
[2]; [5]
  Tmax: 108 min
  half-life: 96.6 min
[2]; [6]
  AUC(0-inf): 37900 ng·h/mL
  AUC(0-t): 37600 ng·h/mL
  Cmax: 6250 ng/mL
[2]; [7]
  AUC(0-inf): 63200 ng·h/mL
  AUC(0-t): 62500 ng·h/mL
  Cmax: 10400 ng/mL

## CCN(C(C)=O)c1cccc(-c2ccnc3c(C#N)cnn23)c1.Cl [zaleplon HCl, Zaleplon Hydrochloride]
[3]; oral, calculated on a mg/kg dosing basis
  Cmax compared with the free base: essentially equivalent
[3]; [8]
  AUC(0-inf): 2320 ng·h/mL
  AUC(0-t): 2310 ng·h/mL
  Cmax: 790 ng/mL
  Tmax: 33 min
[3]; [9]
  AUC(0-inf): 1820 ng·h/mL
  AUC(0-t): 1820 ng·h/mL
  Cmax: 1010 ng/mL
  Tmax: 15 min
[3]; [10]
  AUC(0-inf): 2010 ng·h/mL
  AUC(0-t): 2010 ng·h/mL
  Cmax: 642 ng/mL
  Tmax: 30 min
[3]; [11]
  AUC(0-inf): 1360 ng·h/mL
  AUC(0-t): 1360 ng·h/mL
  Cmax: 587 ng/mL
  Tmax: 60 min
[3]; [12]
  AUC(0-inf): 2650 ng·h/mL
  AUC(0-t): 2650 ng·h/mL
  Cmax: 820 ng/mL
  Tmax: 30 min
[3]; [13]
  AUC(0-inf): 3760 ng·h/mL
  AUC(0-t): 3720 ng·h/mL
  Cmax: 896 ng/mL
  Tmax: 30 min

## CCN(C(C)=O)c1cccc(-c2ccnc3c(C#N)cnn23)c1 [zaleplon free base, N-[3-(3-cyanopyrazolo[1,5-a]pyrimidin-7-yl)phenyl]-N-ethylacetamide, reference compound]
[3]; 5 mg Free Base/kg, single oral dose 5.0 mg Free Base/kg, Mean of 5 dogs
  Tmax: 66 min
[3]; [14]
  AUC(0-inf): 6940 ng·h/mL
  AUC(0-t): 6700 ng·h/mL
  Cmax: 1590 ng/mL
[3]; [15]
  AUC(0-inf): 6860 ng·h/mL
  AUC(0-t): 6840 ng·h/mL
  Cmax: 1850 ng/mL
  Tmax: 60 min
[3]; [16]
  AUC(0-inf): 7000 ng·h/mL
  AUC(0-t): 6930 ng·h/mL
  Cmax: 1460 ng/mL
  Tmax: 60 min
[3]; [17]
  AUC(0-inf): 3760 ng·h/mL
  AUC(0-t): 3760 ng·h/mL
  Cmax: 926 ng/mL
  Tmax: 120 min
[3]; [18]
  AUC(0-inf): 2550 ng·h/mL
  AUC(0-t): 2550 ng·h/mL
  Cmax: 1100 ng/mL
  Tmax: 30 min
[3]; [19]
  AUC(0-inf): 14500 ng·h/mL
  AUC(0-t): 13400 ng·h/mL
  Cmax: 2630 ng/mL
  Tmax: 60 min

## CC(=O)N(C)c1cccc(-c2ccnc3c(C(=O)c4cccs4)cnn23)c1 [Indiplon free base, N-methyl-N-{3-[3-(thiophene-2-carbonyl)-pyrazolo[1,5-a]pyrimidin-7-yl]-phenyl}acetamide, reference compound]
[4]; Mean, N = 5, listed as Free Base Suspension
  AUC(0-t): 250 ng·h/mL
[4]; [20]
  AUC(0-t): 408 ng·h/mL
  Cmax: 266 ng/mL
[4]; [21]
  AUC(0-t): 160 ng·h/mL
  Cmax: 106 ng/mL
  Tmax: 60 min
[4]; [22]
  AUC(0-t): 125 ng·h/mL
  Cmax: 101 ng/mL
[4]; dog CVSCCL, listed as Free Base Suspension
  AUC(0-t): 277 ng·h/mL
[4]; male, beagle, dog, plasma, po, 5 mg/kg, Mean, N = 5, read-out: Cmax
  Cmax: 185 ng/mL
[4]; male, beagle, dog, plasma, po, 5 mg/kg, Mean, N = 5, read-out: Tmax
  Tmax: 36 min
[4]; male, beagle, dog, plasma, po, 5 mg/kg, dog CUVBAT, read-out: Tmax
  Tmax: 30 min
[4]; male, beagle, dog, plasma, po, 5 mg/kg, dog CVRCVX, read-out: AUC0-t
  AUC(0-t): 279 ng·h/mL
[4]; male, beagle, dog, plasma, po, 5 mg/kg, dog CVRCVX, read-out: Cmax
  Cmax: 212 ng/mL
[4]; male, beagle, dog, plasma, po, 5 mg/kg, dog CVRCVX, read-out: Tmax
  Tmax: 30 min
[4]; male, beagle, dog, plasma, po, 5 mg/kg, dog CVSCCL, read-out: Cmax
  Cmax: 240 ng/mL

## CC(=O)N(C)c1cccc(-c2ccnc3c(C(=O)c4cccs4)cnn23)c1 [indiplon HBr, N-methyl-N-{3-[3-(thiophene-2-carbonyl)-pyrazolo[1,5-a]pyrimidin-7-yl]-phenyl}acetamide HBr cocrystal]
[4]; oral 5 mg free base/kg
  Tmax compared to the free base: not remarkably different
  increase in the AUC versus free base: 226.8%
  increase in the maximum plasma concentrations achieved (Cmax) versus free base: 69.7%
[4]; oral 5 mg free base/kg, cross-over
  test animals with pharmaceutical profile superior to the corresponding free base: 5 out of 5
[4]; [23]
  AUC(0-t): 567 ng·h/mL
  Cmax: 314 ng/mL
  Tmax: 48 min
[4]; dog CTZBCG, listed as HBr Salt Suspension
  AUC(0-t): 1130 ng·h/mL
[4]; [24]
  AUC(0-t): 429 ng·h/mL
  Cmax: 253 ng/mL
[4]; [25]
  AUC(0-t): 291 ng·h/mL
  Cmax: 309 ng/mL
[4]; [26]
  AUC(0-t): 258 ng·h/mL
  Cmax: 227 ng/mL
[4]; [27]
  AUC(0-t): 725 ng·h/mL
  Cmax: 270 ng/mL
  Tmax: 120 min
[4]; male, beagle, dog, plasma, po, 5 mg/kg, dog CTZBCG, read-out: Cmax
  Cmax: 513 ng/mL
[4]; male, beagle, dog, plasma, po, 5 mg/kg, dog CTZBCG, read-out: Tmax
  Tmax: 30 min
[4]; male, beagle, dog, plasma, po, 5 mg/kg, dog CUPBEG, read-out: Tmax
  Tmax: 30 min

— patent publication US20080045547A1, “Salts And Co-Crystals of Pyrazolopyrimidine Compounds, Compositions Thereof And Methods For Their Production And Use” (priority 2006, published 2008)
